In patent US20040220268A1, “Compound that directly stimulates phospholipase C activity” (priority 2003, published 2004):

Tests used:
[1] = system: human neutrophils; test: [Ca2+]i measurement with fura-2 in neutrophils; format: cell-based
Protocol: Fura-2-loaded neutrophils were stimulated with m-3M3FBS or o-3M3FBS at 25 μM in extracellular calcium containing 2 mM or extracellular free calcium conditions. The results shown are representative of three independent experiments (A). Prepared neutrophils were loaded with fura-2 and then stimulated with 25 μM of m-3M3FBS in the absence or in the presence of 4 μM of U-73122 or U-73343 (B). Changes in 340 nm/380 nm excitation ratio were monitored, and converted to [Ca^2+]i levels. Data are presented as means ±S. E. M. of three independent experiments.
Freshly prepared human neutrophils were incubated in serum free RPMI 1640 medium with 3 μM of fura-2/AM at 37° C. for 30 min with continuous stirring. After washing with serum free RPMI 1640 medium, the cells were suspended in serum free RPMI containing 250 μM of sulfinpyrazone to prevent dye leakage. About 2×10^6 cells were suspended in Ca^2+ free Locke's solution (158.4 mM NaCl, 5.6 mM KCl, 1.2 mM MgCl2, 5 mM HEPES pH 7.3, 10 mM glucose, and 0.2 mM EGTA) for each measurement. Changes in the fluorescence ratio were measured at an emission wavelength of 500 nm for dual excitation wavelengths at 340 nm and 380 nm. The calibration of the fluorescence ratio versus [Ca^2+]i was performed as described by Grynkiewicz (Grynkiewicz et al., 1985).

[2] = target: PLC β2 (Homo sapiens, UniProt Q00722); test: Phosphoinositide hydrolysis in vitro; format: biochemical
Protocol: (§1) The hydrolyzing activity of PtdIns-4,5-P2 was measured on mixed phospholipid vesicles containing 120 μM phosphatidylethanolamine, 30 μM PtdIns-4,5-P2, and 1 μCi/ml [3H] PtdIns-4,5-P2. Purified PLC β2, substrates, and the chemicals (2.5, 5, 10, 20, and 25 μM of m-3M3FBS or of o-3M3FBS) were coincubated (A), 25 μM of m-3M3FBS or o-3M3FBS, and phospholipid substrates were mixed with purified PLC β3, γ1, 2, or δ1 (B). Reactions were performed for 10 min at 37° C. in a 200 μl reaction mixture containing lipid micelles (5 μM [^3H] PtdIns-4,5-P2, 20,000 cpm). Reactions were stopped by adding 1 ml of CHCl3:CH3OH:HCl (50:50:0.3, v/v/v). Inositol trisphosphates were extracted with 0.5 ml of 1 M HCl/5 mM EGTA, and the radioactivity in the upper aqueous phase was measured. Data are presented as means ±S. E. M. of three independent experiments (A, B).
(§2) PLC activity was assayed using [^3H] PtdIns-4,5-P2 as a substrate (Min et al., 1993). PtdIns-4,5-P2-hydrolyzing activity was measured with mixed phospholipid micelles containing 120 μM phosphatidylethanolamine, 30 μM PtdIns-4,5-P2, and 1 μCi/ml [^3H] PtdIns-4,5-P2. The lipids, in chloroform, were dried under a stream of nitrogen gas, suspended in assay buffer (20 mM HEPES pH 7.0, 120 mM NaCl, 2 mM MgCl2, 40 or 100 μM CaCl2, and 1 mg/ml bovine albumin serum (Bayer, Leverkusen, Germany)), and sonicated. All proteins added to the reaction mixture were dialyzed overnight against the assay buffer. Incubation was performed for 10 min at 37° C. in a 200 μl reaction mixture containing lipid micelles (5 μM [3H] PtdIns-4,5-P2, 20,000 cpm). The reaction was stopped by adding 2 ml of CHCl3: CH3OH: HCl (50: 50: 0.3, v/v/v). The inositol triphosphates were extracted with 0.5 ml of 1 N HCl, and radioactivities in the upper aqueous phase were measured.

[3] = target: T1, PLC γ1 (Homo sapiens, UniProt P19174); test: Phosphoinositide hydrolysis in vitro; format: biochemical; conditions: 25 μM; purified isozyme
T1 sequence (P19174 1-1290): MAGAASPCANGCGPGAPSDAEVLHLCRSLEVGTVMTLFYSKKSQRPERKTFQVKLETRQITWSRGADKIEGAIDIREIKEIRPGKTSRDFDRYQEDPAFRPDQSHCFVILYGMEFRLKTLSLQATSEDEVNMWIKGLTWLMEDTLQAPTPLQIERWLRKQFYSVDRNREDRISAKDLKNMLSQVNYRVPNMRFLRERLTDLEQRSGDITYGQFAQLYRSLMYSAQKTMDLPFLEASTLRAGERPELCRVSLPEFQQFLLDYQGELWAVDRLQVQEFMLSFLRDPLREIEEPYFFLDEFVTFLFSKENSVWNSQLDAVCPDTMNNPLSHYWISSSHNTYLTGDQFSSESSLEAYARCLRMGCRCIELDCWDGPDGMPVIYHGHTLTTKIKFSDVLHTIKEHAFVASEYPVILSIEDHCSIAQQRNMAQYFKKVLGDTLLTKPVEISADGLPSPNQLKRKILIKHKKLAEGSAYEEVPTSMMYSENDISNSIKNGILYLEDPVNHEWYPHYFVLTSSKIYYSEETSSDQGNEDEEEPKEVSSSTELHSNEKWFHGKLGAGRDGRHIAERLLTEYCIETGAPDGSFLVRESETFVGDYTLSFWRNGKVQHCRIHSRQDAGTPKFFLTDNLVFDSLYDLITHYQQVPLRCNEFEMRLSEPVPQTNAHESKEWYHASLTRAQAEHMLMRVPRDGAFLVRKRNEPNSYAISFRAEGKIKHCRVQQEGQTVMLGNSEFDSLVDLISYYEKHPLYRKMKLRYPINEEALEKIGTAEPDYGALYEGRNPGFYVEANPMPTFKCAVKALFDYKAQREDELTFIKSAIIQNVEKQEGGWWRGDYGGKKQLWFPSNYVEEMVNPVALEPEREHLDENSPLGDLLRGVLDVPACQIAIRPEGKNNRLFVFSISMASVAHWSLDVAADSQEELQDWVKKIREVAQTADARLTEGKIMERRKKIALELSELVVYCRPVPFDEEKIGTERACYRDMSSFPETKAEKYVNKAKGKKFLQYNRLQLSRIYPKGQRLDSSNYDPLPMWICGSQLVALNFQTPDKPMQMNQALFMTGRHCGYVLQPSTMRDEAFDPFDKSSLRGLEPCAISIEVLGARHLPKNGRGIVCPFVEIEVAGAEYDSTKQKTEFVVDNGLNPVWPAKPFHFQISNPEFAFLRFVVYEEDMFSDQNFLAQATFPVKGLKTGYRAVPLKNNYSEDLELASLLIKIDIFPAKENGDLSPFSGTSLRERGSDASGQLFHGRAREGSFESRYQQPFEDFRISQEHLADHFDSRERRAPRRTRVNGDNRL
Protocol: as §1, §2

[4] = 25 μM, extracellular Ca2+ at physiologic levels (2 mM)

PLC β2, sequence (Q00722 whole entry, species assumed): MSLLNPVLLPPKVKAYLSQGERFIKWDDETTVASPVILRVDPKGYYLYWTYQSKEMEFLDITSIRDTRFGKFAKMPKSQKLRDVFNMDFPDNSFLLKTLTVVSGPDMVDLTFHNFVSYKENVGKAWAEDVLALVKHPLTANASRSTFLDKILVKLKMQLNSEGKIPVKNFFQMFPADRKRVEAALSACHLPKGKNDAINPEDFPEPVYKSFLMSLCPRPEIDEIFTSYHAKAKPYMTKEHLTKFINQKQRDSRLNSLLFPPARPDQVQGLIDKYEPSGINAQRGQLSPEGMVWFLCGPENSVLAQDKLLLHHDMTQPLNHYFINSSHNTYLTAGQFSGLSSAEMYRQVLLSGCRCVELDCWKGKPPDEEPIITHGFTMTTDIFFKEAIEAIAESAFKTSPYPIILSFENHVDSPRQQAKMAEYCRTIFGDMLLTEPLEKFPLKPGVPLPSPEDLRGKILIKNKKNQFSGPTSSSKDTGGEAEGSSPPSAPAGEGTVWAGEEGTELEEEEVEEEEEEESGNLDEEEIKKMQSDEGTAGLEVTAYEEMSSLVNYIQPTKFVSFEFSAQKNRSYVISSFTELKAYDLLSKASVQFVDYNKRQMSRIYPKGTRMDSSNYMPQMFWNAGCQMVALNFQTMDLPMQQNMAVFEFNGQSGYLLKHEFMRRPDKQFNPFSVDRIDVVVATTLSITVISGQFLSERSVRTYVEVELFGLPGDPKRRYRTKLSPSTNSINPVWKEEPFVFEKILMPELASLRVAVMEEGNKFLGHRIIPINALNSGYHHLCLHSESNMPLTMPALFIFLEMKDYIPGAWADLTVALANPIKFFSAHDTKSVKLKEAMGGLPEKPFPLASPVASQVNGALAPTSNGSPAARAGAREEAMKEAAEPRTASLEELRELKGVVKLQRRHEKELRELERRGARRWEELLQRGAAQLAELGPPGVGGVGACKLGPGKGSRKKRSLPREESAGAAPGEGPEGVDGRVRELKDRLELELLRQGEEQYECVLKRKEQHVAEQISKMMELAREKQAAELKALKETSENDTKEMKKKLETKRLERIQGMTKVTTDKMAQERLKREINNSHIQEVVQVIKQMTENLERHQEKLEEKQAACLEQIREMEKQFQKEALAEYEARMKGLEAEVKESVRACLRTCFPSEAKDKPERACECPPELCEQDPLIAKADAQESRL

| SMILES | [Ca2+]i increase [1, 4] | [Ca2+]i increase ([1]; 25 μM, extracellular calcium-depleted condition) | concentration of saturated maximal activity of [Ca2+]i release ([1]; concentration dependent, data not shown) [µM] | calcium increase ([1]; human neutrophils, 25 μM) | in vitro PLCβ2 activity ([2]; [3H] PtdIns as substrate, data not shown) | concentration at which PIP2-hydrolyzing activity of PLC β2 was enhanced ([2]; [3H] PtdIns-4,5-P2 substrate) | effect on PIP2-hydrolyzing activity of PLC β2 ([2]; low doses (ca., 2.5 and 5 μM), [3H] PtdIns-4,5-P2 substrate) | activity of PLC gamma1 [3] | effect on PIP2-hydrolyzing activity of PLC β2 ([2]; at 10 μM or higher concentrations (up to 25 μM)) |
| --- | --- | --- | --- | --- | --- | --- | --- | --- | --- |
| Cc1cc(C)c(S(=O)(=O)Nc2cccc(C(F)(F)F)c2)c(C)c1 [m-3M3FBS, 2,4,6-Trimethyl-N-(meta 3-trifluoromethyl-phenyl)-benzenesulfonamide] | caused a [Ca^2+]i increase | evoked a [Ca^2+]i increase | 50 | induced calcium increase | significantly increased | exceeding 10 μM | no effect | augmented the activity |  |
| Cc1cc(C)c(S(=O)(=O)Nc2ccccc2C(F)(F)F)c(C)c1 [o-3M3FBS, 2,4,6-Trimethyl-N-(ortho 3-trifluoromethyl-phenyl)-benzenesulfonamide, reference compound] | failed to elicit this response |  |  |  |  |  |  | did not affect | no effect |
